Experiments:
[1] = OVCAR3 ovarian xenograft model; details: female, SCID Hairless Outbred (SHO), mouse, in vivo, ip
[2] = system: OVCAR3 ovarian xenografts; test: OVCAR3 ovarian xenograft model; details: dose 60 mg/kg (30 mg/kg twice a day) intraperitoneally Q7d×4

CC(=O)O[C@H]1C(=O)[C@@]2(C)[C@H]([C@H](OC(=O)c3ccccc3)[C@]3(O)C[C@H](OC(=O)[C@H](O)[C@@H](NC(=O)c4ccccc4)c4ccccc4)C(C)=C1C3(C)C)[C@]1(OC(C)=O)CO[C@@H]1C[C@@H]2O [paclitaxel, reference compound]
MTD [1]: 60 mg/kg
tumor volume ([2]; DAY 0): 169 mm3
tumor volume ([2]; DAY 6): 139 mm3
tumor volume ([2]; DAY 11): 85 mm3
tumor volume ([2]; DAY 14): 84 mm3
tumor volume ([2]; DAY 18): 61 mm3
tumor volume ([2]; DAY 21): 50 mm3
tumor volume ([2]; DAY 25): 41 mm3
tumor volume ([2]; DAY 28): 44 mm3
tumor volume ([2]; DAY 31): 43 mm3
tumor volume ([2]; DAY 34): 50 mm3
tumor volume ([2]; DAY 38): 55 mm3
tumor volume ([2]; DAY 41): 38 mm3
tumor volume ([2]; DAY 45): 39 mm3
tumor volume ([2]; DAY 49): 40 mm3
tumor volume ([2]; DAY 53): 40 mm3
tumor volume ([2]; DAY 56): 39 mm3
tumor volume ([2]; DAY 59): 37 mm3
tumor volume ([2]; DAY 63): 42 mm3
tumor volume ([2]; DAY 67): 33 mm3
tumor volume ([2]; DAY 70): 28 mm3
tumor volume ([2]; DAY 74): 32 mm3
tumor volume ([2]; DAY 77): 31 mm3
tumor volume ([2]; DAY 80): 31 mm3
tumor volume ([2]; DAY 83): 38 mm3
tumor volume ([2]; DAY 87): 28 mm3
tumor volume ([2]; DAY 90): 32 mm3
tumor volume ([2]; DAY 94): 30 mm3
tumor volume ([2]; DAY 97): 31 mm3
tumor volume ([2]; DAY 102): 26 mm3
tumor volume ([2]; DAY 105): 31 mm3
tumor volume ([2]; DAY 108): 28 mm3
tumor volume ([2]; DAY 111): 26 mm3
tumor volume ([2]; DAY 115): 31 mm3
tumor volume ([2]; DAY 118): 26 mm3
tumor volume ([2]; DAY 122): 31 mm3
